Measured values as given in patent US20170218375A1, “MORPHOLINOS, MORPHOLINO UPREGULATING, AND ASSOCIATED METHODS” (University of Utah Research Foundation, priority 2011, published 2017).
{Dendrimer} = dendrimer conjugate (vivo-morpholino)

Assays:
[1] = tested on: sVEGFR2 mRNA; assay: RT-PCR of sVEGFR2 mRNA in mouse MS-1 cell line; format: cell-based
Source text: Because VEGFR2_MOe13 decreases mbVEGFR2 and increases sVEGFR2, it is expected that VEGFR2_MOe13 can inhibit angiogenesis and lymphangiogenesis in vivo. To study the effect of VEGFR2_MOe13 in animal models, moVEGFR2_MOe13 was created that targets the exon13-intron13 junction of the mouse VEGFR2 gene. By RT-PCR analysis, it was found moVEGFR2_MOe13 increased sVEGFR2 mRNA and decreased mbVEGFR2 mRNA in the mouse MS-1 cell line (FIG. 7A). […] FIGS. 7(f, g) show the mean area of corneal neovascularization and lymphangiogenesis respectively (n=13-16). Risk factors (p-value) were calculated by two-tail student's t-test (*: p<0.05, **p<0.01, ***p<0.001). Error bar is ±s.e.m.
Each morpholino oligomer was purchased from Gene Tools (Philomath, Oreg.). The sequences of each morpholino oligomer and primers for PCR are listed in supplemental Table. […] The cells were washed three times and fluorescence was detected by a FACScan Analyzer (BD Biosciences, San Jose, Calif.). […]
cDNAs were synthesized from 400 ng total RNA using Omniscript RT kit (Qiagen, Valencia, Calif.) and Oligo-dT primer(dT20) according to the manufacturer's instructions. Real-time PCR was performed using QuantiTect SYBR Green PCR Kit (Qiagen, Valencia, Calif.) and 1 μl of cDNA. […]

[2] = tested on: sVEGFR2/mbVEGFR2 mRNA; assay: Real-time PCR of mouse retinal total RNA after intravitreous injection; format: in vivo; conditions: 2 μl of 100 ng/μl intravitreously on day 0 and day 3, retina on day 4, vivo-morpholino
Source text: To administer morpholinos in vivo, morpholino conjugated with a dendrimer at the 3′ position (vivo-morpholino) was used for animal experiments. It should be understood that this technique is merely exemplary, and any other method of administration is considered to be within the present scope. […] Next, the protein level of mbVEGFR2 and sVEGFR2 in the retina and the ocular solution was examined by western blot. Consistent with real-time PCR results, moVEGFR2_MOe13 decreased mbVEGFR2 protein in the retina (FIG. 7C) and increased sVEGFR2 protein in the ocular solution (FIG. 7D).
To examine whether moVEGFR2_MOe13 could work in the mouse eye, on day 0 and day 3 2 μl of 100 ng/μl moVEGFR2_MOe13 or STD_MO or DPBS were injected intravitreously. On day 4, retinal total RNA was extracted with RNeasy mini kit with DNaseI treatment. sVEGFR2 and mbVEGFR2 mRNA expression were determined by the method described above. For western blot of mbVEGFR2, on day 4, retina was dissolved in RIPA buffer. For western blot of sVEGFR2, on 4 day, intraocular solution was obtained from 6 eyes by pipette. After centrifuge, supernatant was used for further experiment. For western blot, biotin-conjugated anti-VEGFR2 (BAF644, R&D Systems, Minneapolis, Minn.) was used at 1 μg/μl.

[3] = tested on: laser-induced choroidal neovascularization (CNV); assay: Laser-induced choroidal neovascularization (CNV) in mouse; format: in vivo
Protocol: It was also examined whether moVEGFR2_MOe13 inhibits laser-induced choroidal neovascularization (CNV). Each morpholino or DPBS was injected intravitreously on day 1 and day 4 after laser photocoagulation, and laser CNV volumes were examined on day 7. […] Vessel endothelial cells were stained with Alexa fluor488 conjugated isolectin GS-IB4. […] After photocoagulation, on day 1 and day 4, 2 ul of 100 ng/μl STD_MO, 500 ng/μl Goat IgG (AB-108-C, R&D Systems, Minneapolis, Minn.), 100 ng/μl moVEGFR2_MOe13, 500 ng/μl Goat Anti-mouse VEGF-A IgG (AF-493-NA, R&D Systems, Minneapolis, Minn.) or 2 ng/μl SU1498 (572888, EMD chemicals, Gibbstown, N.J.) was injected intravitreously. On day 7, CNV volumes were measured by confocal microscope. n=14-20 for each group. Risk factors (p-value) were calculated by two-tail student's t-test (*: p<0.05, **p<0.01). Error bar is ±s.e.m.
Each morpholino oligomer was purchased from Gene Tools (Philomath, Oreg.). The sequences of each morpholino oligomer and primers for PCR are listed in supplemental Table. HUVECs (Lonza, Walkersville, Md.) were cultured in EBM with EGM SingleQuot Kit supplements and growth factors according to the manufacturer's instructions (Lonza, Walkersville, Md.). MS-1 cells, a mouse endothelial cell line (ATCC, Manassas, Va.) were cultured in 5% FBS/DMEM. Morpholino oligomers were delivered to the nucleus by nucleofection (Amaxa, Gaithersburg, Md.) with a Basic Nucleofector Kit for Primary Mammalian Endothelial Cells (Amaxa, Gaithersburg, Md.) using program A-034 for HUVEC and MS-1 cells. For each nucleofection, 1×10^6 cells were used and plated on a 6-well plate. After 2 days of culture, cells were trypsinized and total RNA was extracted using a RNeasy mini kit (Qiagen, Valencia, Calif.) with DNaseI treatment. Detection of mbVEGFR2 was achieved by flow cytometry. […] The cells were washed three times and fluorescence was detected by a FACScan Analyzer (BD Biosciences, San Jose, Calif.). […]

## 5′-cacccagggatgcctccatacCTAG-3′ (antisense CACCCAGGGATGCCTCCATACCTAG; all phosphorodiamidate morpholino (PMO), 3' {Dendrimer}) [moVEGFR2_MOe13, morpholino that targets the exon13-intron13 junction of the mouse VEGFR2 gene; in vivo conjugated with a dendrimer (vivo-morpholino)]
[1]
  sVEGFR2 mRNA by RT-PCR: increased
[2]
  sVEGFR2/mbVEGFR2 mRNA ratio in retina: significantly increased
[3]; 2 μl intravitreously day 1 and day 4: 100 ng/μl moVEGFR2_MOe13, 500 ng/μl anti-mouse VEGF-A IgG, 2 ng/μl SU1498, CNV volume day 7
  suppression of CNV compared with anti-VEGF-A IgG and SU1498 (FIG. 9): comparable
[3]; intravitreous injection on day 1 and day 4 after laser photocoagulation, volume on day 7, compared with STD_MO (p<0.05) and DPBS (p<0.01)
  laser CNV volume: significantly suppressed
